Assay [1] concerns the target récepteur des benzodiazépines. In words: Displacement of 3H-flunitrazepam from its receptor in rat cortex tissue (in vitro). It counts as binding. The note with it: for IC50: 3H-flunitrazépam 4 nM, cortex du Rat, 0°, 60 mn, pH 7,4. From the text: Pour déterminer l'activité pharmacologique des molécules de cette invention, leur affinité pour le récepteur des benzodiazépines a d'abord été étudiée. Cette affinité est déterminée par l'aptitude de la molécule à déplacer une benzodiazépine radioactive (le flunitrazépam tritié) de son récepteur.
Ce pouvoir de déplacement de la molécule est indiqué par son IC50, c'est-à-dire la concentration du produit nécessaire pour déplacer 50 % des liaisons spécifiques du ^3H-flunitrazépam avec son récepteur, à partir de tissus préparés du cerveau du Rat.
Pour ces essais in vitro, il s'agit d'incuber à 0° pour 60 mn une suspension de tissus provenant du cortex du Rat (= 10 mg de tissu par échantillon) dans un milieu tamponné (pH 7,4, 0,05 M Tris-HCl) en présence d'une concentration fixe de ^3H-flunitrazépam (= 4 nM, 89 Ci/mmole) et d'une concentration variable du produit (10^-3 à 10^-9 M). La suspension est ensuite filtrée et la radioactivité restant sur le filtre est déterminée par scintillation. L'information obtenuepermet de dessiner une courbe de déplacement contre la concentration du produit et de calculer l'IC50 du produit.

Assay [2] has as its system Babouin photosensible. The note with it: comparison; cited from earlier work.
The subject of assay [3] is souris. In words: Antagonism of the anticonvulsant action of diazepam (PTZ) in mice. The class given is in vivo. The following applies: PTZ 70 mg/kg s.c.; diazépam 1 mg/kg s.c. 25 minutes before, carbamate 10 mg/kg 15 minutes before; 80 % of controls convulse. Here is the method: ① Absence d'effets antagonistiques sur l'action anticonvulsivante du diazépam :
20 souris (30 g, ♂) ont été traitées avec 70 mg/kg s.c. de PTZ. Une moitié a servi de contrôle; l'autre moitié a reçu 1 mg/kg s.c. de diazépam 25 minutes avant le PTZ et 10 mg/kg de carbamate 15 minutes avant le PTZ.

Assay [4] relates to souris. As to the kind of experiment: Antagonism of convulsions induced by méthyl β-carboline in mice. It counts as in vivo. The note with it: 1 mg/kg s.c. 5 minutes before méthyl β-carboline 1 to 10 mg/kg s.c. The method, then:
Par contre, cette molécule antagonise les effets convulsivants induits par un agoniste inverse de la méthyl-β-carboline.
100 souris (30 g, ♂) sont traitées par des doses croissantes de méthyl B-carboline de 1 mg à 10 mg/kg s.c. La moitié des souris a été prétraitée par 1 mg/kg de méthyl carbamate s.c. 5 minutes avant l'injection de méthyl β-carboline.

Assay [5] relates to souris. As to the kind of experiment: Conflict test (Skinner box), anxiolytic effect of diazepam in mice. It counts as in vivo. The method, then:
③. Absence d'effet antagoniste sur les effets anxiolytiques du diazépam : • 9 souris ont été entraînées dans un test de conflit décrit par PRADO et al. (Nature 301, 64-66, 1983). En bref les animaux privés de nourriture sont soumis à des séances quotidiennes de 15 minutes dans une boîte de Skinner. Ces sessions comprennent successivement : 5 mn sans conflit (où la souris reçoit une boulette de nourriture chaque fois qu'elle appuie sur la pédale), 5 mn de conflit (où l'appui sur la pédale entraîne à la fois la délivrance d'une boulette et un choc électrique léger), 5 mn sans conflit. Les performances des souris (nombre d'appuis/mn) baissent durant les phases de conflit.

Assay [6] has as its system souris. As to the kind of experiment: Blockade of diazepam-induced sedation, rotarod in mice. The class given is in vivo. The following applies: 10 mg/kg s.c.; diazépam 2 mg/kg s.c. Here is the method:
②. Blocage de la sédation induite par le diazépam :
20 souris (30 g, ♂) ont été entraînées sur le rotarod (bâton de 2,5 cm 0 tournant à 4 rev/mn) pendant 5 minutes. Les souris entraînées seront utilisées si, lors du test précédant l'injection, elles restent 1 minute sans tomber du bâton. Les souris reçoivent toutes 2 mg/kg s.c. de diazépam et sont testées toutes les 10 minutes. Le pourcentage de souris restant 1 minute sur le bâton est indiqué en ordonnée de la figure.

Assay [7] concerns souris. As to the kind of experiment: Convulsions induced by pentylenetetrazol (PTZ) in mice. It counts as in vivo. The following applies: PTZ 70 mg/kg s.c. Here is the method:
40 souris "Swiss", d, 30 g recoivent 70 mg/kg s.c. de PTZ. Les souris sont divisées en 4 lots : 1 lot contrôle, 1 lot reçoit 10 mg/kg s.c. de méthyl carbamate, 5 minutes avant le PTZ, 1 lot la même dose de méthyl carbamate 15 minutes avant, et le dernier lot une dose de 1 mg/kg de méthyl carbamate 15 minutes avant. 60 % à 80 % des souris présentent des convulsions dans les 4 lots sans différences statistiquement significatives entre les lots.

For assay [8], the system named is récepteur des benzodiazépines. In words: In vivo displacement of tritiated flunitrazepam in mouse brain regions. Also noted: species or system souris. The note with it: for flunitrazépam tritié déplacé: 10 mg/kg; for DE50 (dose effective pour déplacer 50 % du flunitrazépam tritié): s.c. The method, then: Ceci est démontré par des tests de déplacement du flunitrazépam tritié par le méthyl β-carbamate invivo.
200 µCi/kg de flunitrazépam tritié sont injectées i.v. chez la souris. Après 10 minutes, une dose connue du méthyl β-carbamate (allant de 2,5 mg/kg jusqu'à 10 mg/kg) est injectée s.c. et 10 minutes plus tard, l'animal est sacrifié. Le cerveau est rapidement disséqué. Le cervelet, le cortex et l'hippocampe sont isolés et broyés séparément et ensuite filtrés. La quantité de radio-activité restant sur le filtre est inversement proportionnelle au pouvoir de déplacement du méthyl β-carbamate.

Assay [9] deals with Babouin photosensible. In words: Photosensitive baboon, intermittent light stimulation (SLI). The class given is in vivo. An excerpt:
Cette molécule appartient à la classe des agonistes inverses. Elle provoque des convulsions. Le modèle utilisé est le Babouin photosensible. Sur ce modèle, l'application de stimulation lumineuse intermittente (SLI) par l'intermédiaire d'une lampe stroboscopique provoque des manifestations épileptiques d'amplitude variable. Suivant l'intensité de leur réponse, les animaux sont classés de 0 à + 4.
2 animaux PP 86 et 88 ont été utilisés. Le 86 est + 3 au bout de 30 secondes de SLI, le 5.5.1983. L'administration de l'éthylamino-3-β-carboline (1 mg/kg) réduit cette latence à 10 secondes, 2 minutes après l'injection. lh30 après l'injection, cette latence est toujours très diminuée (20 secondes). […] Ces résultats sont très différents de ceux de la méthyl-S-carboline dont l'effet convulsivant disparait au bout de 20 minutes chez le Babouin.
Le 88 a montré le même type de résultat. Après 15 secondes de SLI, il est + 3 le 5.5.1983. Après l'administration de 2 mg/kg de N-éthyl carboline, la SLI provoque un stade + 3 au bout de 5 secondes. […] Après 5 heures, la latence est toujours raccourcie (10 secondes).

Structures are written as SMILES.

In turn, `CCOC(=O)c1cc2c(cn1)[nH]c1ccccc12` [-CO2CH2CH3, ester éthyliquede l'acide β-carboline-3-carboxylique, reference compound] registered an IC50 in [1] of 2 nM.
Take `COC(=O)c1cc2c(cn1)[nH]c1ccccc12` [méthyl-S-carboline, méthyl β-carbolyne-3-carboxylate]: in the assay with Babouin photosensible [2], the “time after which the convulsant effect disappears” value was 20 min.
Regarding `COC(=O)Nc1cc2c(cn1)[nH]c1ccccc12` [-NHCO2CH3, méthoxycarbonylamino-3-β-carboline], the “convulsions in mice treated with diazépam + méthyl carbamate” value in the assay on souris [3] is listed as “aucun phénomène convulsif”. For the same molecule, the “effect on convulsions induced by méthyl β-carboline” value in the assay with souris [4] was “antagonise d'une façon compétitive”. Also, the “effect on the anxiolytic effect of diazépam (conflict test)” value in the assay on souris [5] (given simultaneously with diazepam 5 mg/kg s.c.) was “ne bloque pas cet effet anxiolytique du diazépam”. Moreover, the “effect on the sedative effect of diazépam (rotarod)” value with souris [6] is “antagonise l'effet sédatif du diazépam”. For the same molecule, in the assay on souris [7], the “activité agonistique sur les convulsions induites par le PTZ” value was “dénuée d'activité agonistique”. For the same molecule, in assay [8] (cervelet (BZ1) versus cortex and hippocampe (BZ1 and BZ2), souris), the “selectivity between brain regions / receptor sub-classes” value was “sélectivité pour les récepteurs du cervelet”. Further, the “flunitrazépam tritié déplacé” value is reported as around 100% in [8] (cervelet), around 75% in [8] (cortex) and around 75% in [8] (hippocampe). The “DE50 (dose effective pour déplacer 50 % du flunitrazépam tritié)” value in assay [8] (cervelet, souris) is reported as 4 mg/kg; in assay [8] (cortex, souris), 5 mg/kg; in [8] (hippocampe, souris), 6 mg/kg. Besides, the IC50 in [1] came out at 71 nM. In addition, the “IC50 compared with éthylamino-3-β-carboline” value in [1] (relative to the IC50 of éthylamino-3-β-carboline) is listed as “presque dix fois plus faible”. In [1] (à haute concentration), the “3H-flunitrazépam déplacé” value is given as 80%.
As for `CN1C(=O)CN=C(c2ccccc2)c2cc(Cl)ccc21` [diazepam, reference compound], the “effect on the fall of lever presses during conflict” value in the assay with souris [5] (5 mg/kg s.c.) was “s'oppose à cette baisse des appuis”.
`O=C(Nc1cc2c(cn1)[nH]c1ccccc12)C(F)(F)F` [-NHCOCF3, trifluoroacétylamino-3-β-carboline] yielded a 50% inhibitory concentration (IC50) in assay [1] of 6300 nM. In other words, the single-digit micromolar range.
Still for that read-out and setting: the figure for `CN1C(=O)CN=C(c2ccccc2F)c2cc([N+](=O)[O-])ccc21` [Flunitrazepam, reference compound] is 4 nM.
Consider `CCNc1cc2c(cn1)[nH]c1ccccc12` [-NHCH2CH3, éthylamino-3-β-carboline], for which the “persistence of the effect on latency” value in the assay on Babouin photosensible [9] (animal 88, 2 mg/kg) is “persiste une heure”. In addition, the “latence du stade + 3 sous SLI” value in the assay with Babouin photosensible [9] (animal 88, 2 mg/kg (15 secondes before treatment)) was 5 secondes; in the assay with Babouin photosensible [9] (animal 88, 2 mg/kg, après 5 heures), 10 secondes; with Babouin photosensible [9] (animal PP 86, 1 mg/kg, 1h30 après l'injection) it was 20 secondes; with Babouin photosensible [9] (animal PP 86, 1 mg/kg, 2 minutes après l'injection (30 secondes before treatment)) it was 10 secondes. For the same molecule, the “spontaneous seizure after injection” value with Babouin photosensible [9] (animal PP 86, 1 mg/kg) is listed as “crise épileptique tonico-clonique spontanée”. This molecule gave an IC50 in assay [1] of 460 nM.
Regarding `CC(=O)Nc1cc2c(cn1)[nH]c1ccccc12` [-NHCOCH3, acétylamino-3-β-carboline], in assay [1], the concentration for half-maximal inhibition (IC50) was 4000 nM.
In assay [1], `CCOC(=O)Nc1cc2c(cn1)[nH]c1ccccc12` [-NHCO2CH2CH3, éthoxycarbonylamino-3-β-carboline] had an IC50 of 80 nM.
The same measure, in the same setting: to `CS(=O)(=O)Nc1cc2c(cn1)[nH]c1ccccc12` [-NHSO2CH3, méthylsulfonylamino-3-β-carboline] belongs 62000 nM; to `O=CNc1cc2c(cn1)[nH]c1ccccc12` [-NHCHO, formylamino-3-β-carboline], 4700 nM.
In [1], `Nc1cc2c(cn1)[nH]c1ccccc12` [-NH2, amino-3-β-carboline] came in with a half-inhibitory concentration (IC50) of 25000 nM.

The record behind these values is patent EP0148660A1, “Beta-carboline derivatives, process for their preparation and medicaments containing them” (Etablissement Public dit: CENTRE NATIONAL DE LA RECHERCHE …, priority 1983, dated 1985).
